Publication PMC5617480 (Oncotarget, 2017)
Like-named read-outs stand apart in the source and are kept apart here.

Tests used:
c-kit-1 = system: c-kit-1; design: method as in earlier work; settings: ref [1], cited from earlier work
[1] = system: FPu18T (DNA, G4) AGGGTGGGGAGGGTGGGG; assay: FRET melting; settings: 100 mM K+; 10 mM Tris-HCl, pH 7.35; 2.0 μM compound, 1.0 μM DNA
HL-7702 normal cells = assay: Cytotoxicity assay (MTT assay); format: cell-based, human; settings: for Inhibitory rates (%): HL-7702, 20 μM
Description: (§1) To evaluate the cytotoxicity of chiral platinum(II) complexes, HeLa, BEL-7402, MGC80-3, BEL-7404, A549, Hep-G2 and HL-7702 cells (normal cells) were treated with varying concentrations of complexes 1–6 and cisplatin (positive control, cisplatin was dissolved at a concentration of 1.0 mM in 0.154 M NaCl) for 24 h and 48 h. The cell viability of each experimental group was examined by MTT assays. […] [61, 62].
(§2) Materials 100 U/mL penicillin and 100 μg/mL streptomycin in 25 cm2 culture flasks at 37 °C humidified atmosphere with Tris, RNase A, and propidium iodide (PI) were 5% CO2. All cells to be tested in the following assays have purchased from Sigma. The antibody of mutp53, a passage number of 3-6. […]
(§3) were purchased from Abcam. Unless otherwise stated, BEL-7404, A549, and Hep-G2 cancer-cell lines and HL-spectroscopic titration experiments were carried out in 7702 normal cells) per well were seeded in triplicate in TBS (10 mM pH7.35 Tris-HCl, containing 100 mM KCl). 96-well plates and incubated for 24 h at 37 °C and 5.0% The total RNA isolation kit and the two-step RT-PCR kit CO2/95.0% air. Then graded amounts of compound were purchased from TIANGEN. DNA oligomers (highly added to the wells in 10.0 μL of FBS free culture medium polymerized stored at 4 °C; long-term storage at −20 °C) and the plates were incubated in a 5% CO2 humidified are listed in Supplementary Table 1 and were obtained from atmosphere for 24 h and 48 h. Six replica wells were used Shanghai Sangon Biological Engineering Technology & as controls. Each the cells were grew for 12.0 h before Services (Shanghai, China). All tumor cell lines (HeLa, treatment to reach 70.0% confluency and 20.0 μL of tested BEL-7402, MGC80-3, BEL-7404, A549, Hep-G2 cancer- various concentrations of compounds were added to each cell lines and normal liver cell line HL-7702) were obtained well. The final concentration of the tested complexes from the Shanghai Institute for Biological Science (China). or compounds were kept at 1.25, 2.5, 5, 10, 20 μM, Stock solutions of all the compounds (2.0 mM) were made respectively. After 24 h or 48 h of culture, 0.1 mg of in DMSO, and further dilutions to working concentrations MTT (in 20 μL of PBS) was added to each well, and cells were made with corresponding buffer. were incubated at 37 °C for 6 h. The formed formazan crystals were then dissolved in 100 μL of DMSO and the Instrumentation absorbance was read by enzyme labeling instrument with Infrared spectra were obtained on a Perkine Elmer 490/630 nm double wavelength measurement. The final FT-IR Spectrometer. Elemental analyses (C, H, N) IC50 values were calculated by the Bliss method (n = 5). were carried out on a Perkin Elmer Series II CHNS/O All tests were repeated in at least three independent trials. […]

HeLa cells [2] = system: HeLa cells; design: method as in earlier work; settings: 48 h, ref [1]; cited from earlier work
Hep-G2 cells [3] = system: Hep-G2 cells; design: method as in earlier work; settings: Hep-G2, 48 h; ref [1]; cited from earlier work
A549 cells = assay: Cytotoxicity assay (MTT assay); format: cell-based, human; settings: for Inhibitory rates (%): A549, 20 μM
Description: as §1, with “62]. […] Therefore, complex 6 (10 μM) was selected for cell apoptosis analysis by flow-cytometry, RT-PCR, caspase-3/9 activation assays, western blot and transfection assays in BEL-7404 cells for 24 h. In addition, this observed difference in in vitro cytotoxicity between the three complexes 4–6 could be due to the influence of the chirality of the FOA ligand [68]. […]” for “62].”
as §2, §3
(§4) 10.0 min. The cell pellet obtained was dissolved in 1.0 M
(§5) The region between 200 and 400 nm was scanned for each NaOH (1.0 mL) and diluted with 2.0% (v/v) HNO3 (5.0 sample. MTT assay was performed on M1000 microplate mL) for determining whole cell Pt content. Another set reader (Tecan Trading Co. Ltd, Shanghai, China). Cell was treated similarly, nuclear proteins, nuclear fraction, cycle and apoptosis analysis was recorded on FACS Aria cytoplasmic protein, membrane proteins and other fraction II Flow Cytometer (BD Biocsiences, San Jose, USA). were isolated as described by Chen and Schreiber et al. And the each final solution was made up to 5.0 mL
(§6) Cytotoxicity assay (MTT assay) using 2.0% (v/v) HNO3. The amount of Pt taken up by the cells was determined by ICP-MS. The instrument was […]

BEL-7404 cells = assay: Cytotoxicity assay (MTT assay); format: cell-based, human; settings: for Inhibitory rates (%): BEL-7404, 20 μM
Description: as §1, with “62]. […] Therefore, complex 6 (10 μM) was selected for cell apoptosis analysis by flow-cytometry, RT-PCR, caspase-3/9 activation assays, western blot and transfection assays in BEL-7404 cells for 24 h. In addition, this observed difference in in vitro cytotoxicity between the three complexes 4–6 could be due to the influence of the chirality of the FOA ligand [68]. […]” for “62].”
as §2, §3, §4, §5, §6

BEL-7402 cells = assay: Cytotoxicity assay (MTT assay); format: cell-based, human; settings: for Inhibitory rates (%): BEL-7402, 20 μM
Description: as §1, with “62]. […] Therefore, complex 6 (10 μM) was selected for cell apoptosis analysis by flow-cytometry, RT-PCR, caspase-3/9 activation assays, western blot and transfection assays in BEL-7404 cells for 24 h. In addition, this observed difference in in vitro cytotoxicity between the three complexes 4–6 could be due to the influence of the chirality of the FOA ligand [68]. […]” for “62].”
as §2, §3, §4, §5, §6

HeLa cells [4] = assay: Cytotoxicity assay (MTT assay); format: cell-based, human; settings: for Inhibitory rates (%): 20 μM
Description: as §1, with “62]. […] Therefore, complex 6 (10 μM) was selected for cell apoptosis analysis by flow-cytometry, RT-PCR, caspase-3/9 activation assays, western blot and transfection assays in BEL-7404 cells for 24 h. In addition, this observed difference in in vitro cytotoxicity between the three complexes 4–6 could be due to the influence of the chirality of the FOA ligand [68]. […]” for “62].”
as §2, §3, §4, §5, §6

Hep-G2 cells [5] = assay: Cytotoxicity assay (MTT assay); format: cell-based, human; settings: for Inhibitory rates (%): Hep-G2, 20 μM
Description: as §1, with “62]. […] Therefore, complex 6 (10 μM) was selected for cell apoptosis analysis by flow-cytometry, RT-PCR, caspase-3/9 activation assays, western blot and transfection assays in BEL-7404 cells for 24 h. In addition, this observed difference in in vitro cytotoxicity between the three complexes 4–6 could be due to the influence of the chirality of the FOA ligand [68]. […]” for “62].”
as §2, §3, §4, §5, §6

MGC80-3 cells = assay: Cytotoxicity assay (MTT assay); format: cell-based, human; settings: for Inhibitory rates (%): MGC80-3, 20 μM
Description: as §1, with “62]. […] Therefore, complex 6 (10 μM) was selected for cell apoptosis analysis by flow-cytometry, RT-PCR, caspase-3/9 activation assays, western blot and transfection assays in BEL-7404 cells for 24 h. In addition, this observed difference in in vitro cytotoxicity between the three complexes 4–6 could be due to the influence of the chirality of the FOA ligand [68]. […]” for “62].”
as §2, §3, §4, §5, §6

| Structure (SMILES) | selectivity index factor, IC50 (normal HL-7702 cells)/IC50 (BEL-7404 tumor cells) (HL-7702 normal cells; 24 h) | Inhibitory rates (%) (HL-7702 normal cells; 24 h) | Inhibitory rates (%) (HL-7702 normal cells; 48 h) | IC50 (HL-7702 normal cells; HL-7702, 24 h) [µM] | Inhibitory rates (%) (A549 cells; 24 h) | Inhibitory rates (%) (A549 cells; 48 h) | IC50 (A549 cells; A549, 24 h) [µM] | Inhibitory rates (%) (BEL-7404 cells; 24 h) | Inhibitory rates (%) (BEL-7404 cells; 48 h) | IC50 (BEL-7404 cells; BEL-7404, 24 h) [µM] | Inhibitory rates (%) (BEL-7402 cells; 24 h) | Inhibitory rates (%) (BEL-7402 cells; 48 h) | IC50 (BEL-7402 cells; BEL-7402, 24 h) [µM] | Inhibitory rates (%) (HeLa cells [4]; 24 h) | Inhibitory rates (%) (HeLa cells [4]; 48 h) | IC50 (HeLa cells [4]; 24 h) [µM] | Inhibitory rates (%) (Hep-G2 cells [5]; 24 h) | Inhibitory rates (%) (Hep-G2 cells [5]; 48 h) | IC50 (Hep-G2 cells [5]; Hep-G2, 24 h) [µM] | Inhibitory rates (%) (MGC80-3 cells; 24 h) | other results |
| --- | --- | --- | --- | --- | --- | --- | --- | --- | --- | --- | --- | --- | --- | --- | --- | --- | --- | --- | --- | --- | --- |
| O=C(NCC(O)CO)c1cnc2c3c(cccc13)-c1ccccc1C2=O.[Cl-].[Cl-].[Pt+2] (racemic) [ligand 1, R/S-(±)-FOA] | 3.4 | 11.0 ± 1.6 | 15.2 ± 0.6 | 141 ± 1.7 | 32.6 ± 0.4 | 48.4 ± 1.6 | 45.8 ± 0.3 | 35.9 ± 0.7 | 51.9 ± 2.7 | 41.2 ± 0.6 | 30.5 ± 1.4 | 38.9 ± 1.6 | 54.9 ± 1.2 | 25.6± 1.2 | 33.6 ± 1.3 | 69.3 ± 1.3 | 21.3 ± 1.9 | 27.8 ± 0.8 | 73.5 ± 2 | 18.6 ± 0.3 | ctDNADC50/c-kit-1DC50 (c-kit-1; FID selectivity ratio): 0.96; c-kit-1DC50 (c-kit-1; FID): 66.35 µM; ΔTm [1]: 19.15 °C; IC50 (HeLa cells [2]): 25.7 ± 2.2 µM; IC50 (Hep-G2 cells [3]): 32.9 ± 0.5 µM; Inhibitory rates (%) (MGC80-3 cells; 48 h): 24.9 ± 2.2%; IC50 (MGC80-3 cells; MGC80-3, 24 h): 87.2 ± 0.5 µM |
| N.N.[Cl][Pt][Cl] [cisplatin, reference compound] | 0.8 | 59.6 ± 1.2 | 73.6 ± 2.3 | 19.8 ± 1.3 | 48.6 ± 0.4 | 51.1 ± 3.4 | 21.3 ± 0.7 | 45.5 ± 2.1 | 54.2 ± 1.4 | 24.8 ± 1.8 | 55.4 ± 0.9 | 65.7 ± 1.2 | 17.5 ± 0.6 | 64.3 ± 1.4 | 80.6 ± 0.9 | 15.8 ± 1.2 | 51.6 ± 0.6 | 60.6 ± 1.0 | 19.5 ± 0.5 | 61.5 ± 1.2 | selectivity index factor, IC50 (normal HL-7702 cells)/IC50 (BEL-7404 tumor cells) (HL-7702 normal cells; 48 h): 1.0; IC50 (HL-7702 normal cells; HL-7702, 48 h): 15.6 ± 0.3 µM; IC50 (A549 cells; A549, 48 h): 17 ± 2.3 µM; IC50 (BEL-7404 cells; BEL-7404, 48 h): 15.8 ± 0.7 µM; IC50 (BEL-7402 cells; BEL-7402, 48 h): 13.5 ± 0.9 µM; IC50 (HeLa cells [4]; 48 h): 5.8 ± 0.9 µM; IC50 (Hep-G2 cells [5]; Hep-G2, 48 h): 9.5 ± 0.4 µM; Inhibitory rates (%) (MGC80-3 cells; 48 h): 71.4 ± 1.5%; IC50 (MGC80-3 cells; MGC80-3, 24 h): 16.3 ± 1.3 µM; IC50 (MGC80-3 cells; MGC80-3, 48 h): 5.4 ± 0.5 µM |
